Source: patent publication US11660286B2, “Methods and compositions comprising a nitrite-reductase promoter for treatment of medical disorders and preservation of blood products” (EpicentRx, Inc., priority 2011, dated 2023)

Assays:
hemorrhagic shock [1] = assay: Resuscitation from hemorrhagic shock, hamster window chamber model: systemic parameters; conditions: for BP / HR / Hb / Hct / Lactate / pCO2 / pO2 / pH: mean ± SD; for pH: arterial
Procedure: (§1) Experiments were performed in 55-65 g male Golden Syrian Hamsters (Charles River Laboratories, Boston, Mass.) fitted with a dorsal skinfold window chamber. Animal handling and care followed the NIH Guide for the Care and Use of Laboratory Animals. The hamster window chamber model is widely used for microvascular studies in the unanesthetized state. The complete surgical technique is described in detail elsewhere, such as in Colantuoni et al. in Am J Physiol 1984; 246:H508-17. Three to four days after the initial surgery, the microvasculature was examined and only animals passing an established systemic and microcirculatory inclusion criteria, as previously described (e.g., in Cabrales P. Low dose nitrite enhances perfusion after fluid resuscitation from hemorrhagic shock. Resuscitation 2009; 80: 1431-6), were entered into the study.
(§2) Acute hemorrhage was induced by withdrawing 50% of estimated total blood volume (BV) via the carotid artery catheter within 5 min. Total BV was estimated as 7% of body weight. One hour after hemorrhage induction, animals received 25% of BY of resuscitation (200 μl/min) via the jugular vein catheter, implemented with the volume resuscitation strategy defined by the group name, according to the scheme described before.
(§3) Fresh blood was collected from a donor, adult male Golden Syrian Hamsters (60-80 g). Briefly, hamster donors were anaesthetized, left carotid artery catheter was implanted, and blood was allowed to flow into heparinized tubes (sodium heparin 15 IU/mL). RBCs and plasma were separated by centrifugation (2700 rpm, 7 min). Buffy coat was discarded. RRx-001 treated cells were prepared by incubation of 1 mL of packed cells with 2 mg of RRx-001 for 30 minutes at 4° C., cells were rinsed 2× by centrifugation at 3,000 rpm with phosphate buffer saline (PBS) solution with 0.5% albumin (pre-filtered 0.22 μm, pH 7.4). After the final wash, red blood cells (RBCs) were adjusted to a 30% Het with fresh plasma.
(§4) For the groups that received “nitrite,” 10 μM (in saline 100 μL) of sodium nitrite in saline was infused via the carotid artery catheter 10 minutes after resuscitation for the groups that received nitrite. An equal volume of saline was given to the other groups. To address effects of instrumentation and observation, an additional Sham group was included.
(§5) Conscious animal was placed in a restraining tube with a longitudinal slit from which the window chamber protruded, then fixed to the microscopic stage for transillumination with the intravital microscope (BX51WI, Olympus, New Hyde Park, N.Y.). Animals were given 20 min to adjust to the tube environment before any measurements were made. The tissue image was projected onto a charge-coupled device camera (4815, COHU, San Diego, Calif.) connected to a videocassette recorder and viewed on a monitor. Measurements were carried out using a 40× (LUMPFL-WIR, numerical aperture 0.8, Olympus) water immersion objective. Systemic (MAP, HR, Het, Hb, PaO2, PaCO2, pH, lactate, plasma nitrite, and metHb) and microvascular (artciorlar and venular diameters, blood flow, and FCD) parameters were analyzed, as previously described (e.g., in P. Nachuraju et al. in Resuscitation 2011; 82:607-613; Cabrales P. in Resuscitation 2009; 80:1431-6; Cabrales et al. in Shock 2007; 27:380-9; and Cabrales et al. in Am J Physiol 2004; 287:H363-73) before hemorrhage (baseline), after hemorrhage (shock), and up to 90 min after volume replacement (resuscitation). Tissue viability was measured at 8 hours following hemorrhage as described previously (e.g., in Yang et al. In Invest Ophthalmol Vis Sci 2003; 44:1993-1997; and Cabrales et al. in Antioxid Redox Signal 2007; 9:375-84).
(§6) Table and figure results are presented as mean±SD.

hemorrhagic shock [2] = format: in vivo, Golden Syrian Hamsters; conditions: 8 hours following resuscitation; cells in 40 fields
Procedure: as §1
Acute hemorrhage was induced by withdrawing 50% of estimated total blood volume (BV) via the carotid artery catheter within 5 min. Total BV was estimated as 7% of body weight. […]
as §5, with “Animals were given 20 min to adjust to the tube environment before any measurements were made. The tissue image was projected onto a charge-coupled device camera (4815, COHU, San Diego, Calif.) connected to a videocassette recorder and viewed on a monitor. Measurements were carried out using a 40× (LUMPFL-WIR, numerical aperture 0.8, Olympus) water immersion objective.” left out, “9:375-84). […]” for “9:375-84).”

hemorrhagic shock [3] = assay: Resuscitation from hemorrhagic shock, hamster window chamber model: microvascular measurements; format: in vivo, Golden Syrian Hamsters
Procedure: as §1, §2, §3, §4, §5, §6

blood sample = assay: Nitric oxide production in a sample of blood with sodium nitrite (Tonometer, chemiluminescent NO analysis); format: cell-based; conditions: anaerobic conditions (N2 atmosphere), 30 min, 37° C., compared to without ABDNAZ or with ABDNAZ under air
Procedure: The ability of ABDNAZ to increase nitric oxide production in a sample of blood under aerobic conditions and anaerobic conditions was evaluated.
A 0.5 mL aliquot of blood was placed in a tonometer. ABDNAZ (5 μL of a 300 mM solution of ABDNAZ in dimethylsulfoxide) was optionally added to the blood sample in the Tonometer. Sodium nitrite was added to the blood sample to achieve a sodium nitrite concentration of 167 mM. Gas (either air or N2) was passed through the Tonometer at a flow rate of 150 mL/min. Gas exiting the Tonometer was collected in three-minute intervals for a period of thirty minutes. The amount of nitric oxide in each of the collected fractions was measured by a chemiluminescent reaction with ozone in a Sievers Nitric Oxide Analyzer. The amount of nitric oxide produced from the blood sample was expressed per mole of hemoglobin present in the blood sample. All experiments were performed at 37° C.
The amount of hemoglobin (Hb) and hematocrit (Het) in the blood sample was determined using an Advia analyzer.

[4] = Shock (50 min), after hemorrhage, before resuscitation
[5] = Shock (50 min), before resuscitation

Q: How did the metHb levels (hemorrhagic shock [1]; 60 and 90 minutes post fluid resuscitation (FIG. 9), normal about 1% of total Hb) turn out when O=C(CBr)N1CC([N+](=O)[O-])([N+](=O)[O-])C1 [RRx-001] was run?
A: The metHb levels was “normal”.

Q: And the “MAP compared to the blood group” value (hemorrhagic shock [1]; 30 minutes following resuscitation)?
A: Its value is “only decreased at 30 minutes”.

Q: And the metHb levels (hemorrhagic shock [1]; 60 minutes following resuscitation, RRx-001 treated blood)?
A: The metHb levels was 1.4±0.1%.

Q: And the “pH compared to the blood group” value (hemorrhagic shock [1]; 60 minutes post resuscitation)?
A: Its value is “significantly increased”.

Q: And the “blood pressure (MAP) after resuscitation from shock” value (hemorrhagic shock [1]; 60 minutes, comparator not stated)?
A: The value was “significantly decreased”.

Q: What about the metHb levels (hemorrhagic shock [1]; 90 minutes following resuscitation, RRx-001 treated blood) of the same compound?
A: Its metHb levels is 1.2±0.1%.

Q: And the “pO2 levels compared to the blood group” value (hemorrhagic shock [1]; 90 minutes post resuscitation)?
A: Its value is “significantly increased”.

Q: What about the BP (hemorrhagic shock [1]; Baseline (before hemorrhage)) of the same compound?
A: Its BP is 106.3 ± 8.7 mmHg.

Q: And the HR (hemorrhagic shock [1]; Baseline (before hemorrhage))?
A: The HR was 409 ± 21 bpm.

Q: And the Hb (hemorrhagic shock [1]; Baseline (before hemorrhage))?
A: Its Hb is 15.1 ± 0.3 g/dL.

Q: And the Hct (hemorrhagic shock [1]; Baseline (before hemorrhage))?
A: Its Hct is 49.7 ± 1.0%.

Q: What about the Lactate (hemorrhagic shock [1]; Baseline (before hemorrhage)) of the same compound?
A: Its Lactate is 1.39 ± 0.20 mmol/L.

Q: And the pCO2 (hemorrhagic shock [1]; Baseline (before hemorrhage))?
A: Its pCO2 is 54.2 ± 1.8 mmHg.

Q: And the pO2 (hemorrhagic shock [1]; Baseline (before hemorrhage))?
A: The pO2 was 59.9 ± 2.5 mmHg.

Q: What about the “blood pressure following resuscitation” value (hemorrhagic shock [1]; RRx-001 treated blood, current study) of the same compound?
A: The value was “maintained blood pressure”.

Q: What about the BP (hemorrhagic shock [1]; Resuscitation (30 min)) of the same compound?
A: The BP was 92.5 ± 6.7 mmHg.

Q: And the HR (hemorrhagic shock [1]; Resuscitation (30 min))?
A: Its HR is 436 ± 12 bpm.

Q: What about the BP (hemorrhagic shock [1]; Resuscitation (60 min)) of the same compound?
A: The BP was 98.5 ± 7.6 mmHg.

Q: What about the HR (hemorrhagic shock [1]; Resuscitation (60 min)) of the same compound?
A: Its HR is 444 ± 10 bpm.

Q: What about the Hb (hemorrhagic shock [1]; Resuscitation (60 min)) of the same compound?
A: Its Hb is 9.5 ± 0.2 g/dL.

Q: And the Hct (hemorrhagic shock [1]; Resuscitation (60 min))?
A: Its Hct is 31.1 ± 0.6%.

Q: And the Lactate (hemorrhagic shock [1]; Resuscitation (60 min))?
A: The Lactate was 1.93 ± 0.23 mmol/L.

Q: What about the pCO2 (hemorrhagic shock [1]; Resuscitation (60 min)) of the same compound?
A: Its pCO2 is 48.0 ± 3.1 mmHg.

Q: What about the pO2 (hemorrhagic shock [1]; Resuscitation (60 min)) of the same compound?
A: Its pO2 is 70.9 ± 3.4 mmHg.

Q: And the BP (hemorrhagic shock [1]; Resuscitation (90 min))?
A: Its BP is 106.3 ± 9.0 mmHg.

Q: What about the HR (hemorrhagic shock [1]; Resuscitation (90 min)) of the same compound?
A: Its HR is 453 ± 17 bpm.

Q: And the Hb (hemorrhagic shock [1]; Resuscitation (90 min))?
A: Its Hb is 9.5 ± 0.1 g/dL.

Q: And the Hct (hemorrhagic shock [1]; Resuscitation (90 min))?
A: Its Hct is 31.2 ± 0.6%.

Q: And the Lactate (hemorrhagic shock [1]; Resuscitation (90 min))?
A: The Lactate was 1.63 ± 0.23 mmol/L.

Q: What about the pCO2 (hemorrhagic shock [1]; Resuscitation (90 min)) of the same compound?
A: The pCO2 was 49.0 ± 2.2 mmHg.

Q: What about the pO2 (hemorrhagic shock [1]; Resuscitation (90 min)) of the same compound?
A: The pO2 was 68.7 ± 2.9 mmHg.

Q: What about the BP (hemorrhagic shock [1]; [4]) of the same compound?
A: Its BP is 46.3 ± 4.0 mmHg.

Q: What about the HR (hemorrhagic shock [1]; [4]) of the same compound?
A: The HR was 422.5 ± 25 bpm.

Q: What about the Hb (hemorrhagic shock [1]; [4]) of the same compound?
A: The Hb was 8.9 ± 0.3 g/dL.

Q: What about the Hct (hemorrhagic shock [1]; [4]) of the same compound?
A: The Hct was 29.0 ± 0.8%.

Q: And the Lactate (hemorrhagic shock [1]; [5])?
A: The Lactate was 4.16 ± 0.39 mmol/L.

Q: What about the pCO2 (hemorrhagic shock [1]; [5]) of the same compound?
A: Its pCO2 is 39.3 ± 1.2 mmHg.

Q: What about the pO2 (hemorrhagic shock [1]; [5]) of the same compound?
A: Its pO2 is 94.9 ± 5.1 mmHg.

Q: And the pH (hemorrhagic shock [1]; Baseline (before hemorrhage))?
A: Its pH is 7.32 ± 0.01.

Q: What about the pH (hemorrhagic shock [1]; Resuscitation (60 min)) of the same compound?
A: The pH was 7.39 ± 0.01.

Q: And the pH (hemorrhagic shock [1]; Resuscitation (90 min))?
A: Its pH is 7.36 ± 0.01.

Q: And the pH (hemorrhagic shock [1]; [5])?
A: Its pH is 7.28 ± 0.02.

Q: And the “HR compared to the blood group” value (hemorrhagic shock [1]; following resuscitation)?
A: The value was “significantly increased”.

Q: And the “pCO2 levels compared to the blood group” value (hemorrhagic shock [1]; following resuscitation)?
A: The value was “not significantly different”.

Q: What about the “decreases in lactate levels compared to the blood group” value (hemorrhagic shock [1]; post-resuscitation) of the same compound?
A: The value was “did not reach significance”.

Q: What about the “number of apoptotic cells compared to the blood group” value (hemorrhagic shock [2]) of the same compound?
A: The value was “significantly (P<0.01) less”.

Q: What about the “number of necrotic cells compared to the blood group” value (hemorrhagic shock [2]) of the same compound?
A: The value was “significantly (P<0.01) less”.

Q: And the “blood flow compared to the blood group” value (hemorrhagic shock [3]; 60 minutes following resuscitation)?
A: Its value is “significantly (P<0.001) increased”.

Q: What about the “blood flow compared to the blood group” value (hemorrhagic shock [3]; 90 minutes following resuscitation) of the same compound?
A: The value was “significantly (P<0.001) increased”.

Q: What about the “functional capillary density (FCD) compared to the blood group” value (hemorrhagic shock [3]; 90 minutes post resuscitation) of the same compound?
A: The value was “significant (P<0.05 and P<0.01, respectively) increases”.

Q: What about the “functional capillary density (FCD), baseline average and standard deviation” value (hemorrhagic shock [3]; Baseline, before hemorrhage (FIG. 11)) of the same compound?
A: The value was 112±9.

Q: What about the “amount of nitric oxide produced by the blood sample” value (blood sample) of the same compound?
A: The value was “significant increase”.
